# Experimental data: patent publication US8198285B2, “Pyrazine derivatives” (Astrazeneca AB, priority 2010, dated 2012)
# Where a name gives a salt, the structure may show the parent alone.
# Experiments:
# rat bone marrow = system: rat bone marrow
# Procedure: 3-amino-6-(4-{3-[(3-methoxypropyl)amino]propyl}phenyl)-N-pyridin-3-ylpyrazine-2-carboxamide mono-besylate was also tested in an in vivo rat genotoxicity micronucleus study. The objective of this study was to investigate whether two oral doses of 3-amino-6-(4-{3-[(3-methoxypropyl)amino]propyl}phenyl)-N-pyridin-3-ylpyrazine-2-carboxamide mono-besylate increased the frequency of micronucleated immature erythrocytes (MIE) in rat bone marrow.
# 3-amino-6-(4-{3-[(3-methoxypropyl)amino]propyl}phenyl)-N-pyridin-3-ylpyrazine-2-carboxamide mono-besylate was administered to groups of 7 male Wistar Han rats, approximately 10 weeks old at dosing. Groups were given two doses of 0, 25, 125 and 250 mg/kg free-base equivalent (0, 59.5, 297 and 595 umol/kg) 24 hours apart and sampled for bone marrow analysis 24 hours after the second dose. Control rats were dosed with vehicle, 0.5% w/v hydroxypropyl methylcellulose and 0.1% w/v polysorbate 80 in phosphate buffered saline.
# Animals were sacrificed 24 hours after the second dose and bone marrow smears prepared, fixed and stained with acridine orange. For each animal, 2000 immature erythrocytes (IE) were scored for the incidence of micronucleated cells (MIE) and the ratio of IE to mature erythrocytes (E) was determined in 1000 cells. In order to act as a quality control procedure, 6 slides from the bone-marrow of rats treated with cyclophosphamide at 20 mg/kg (72 umol/kg) in a previous study were included with the slides from the treated animals prior to staining and coding.
# [1] = system: β-catenin accumulation in the nucleus of murine C3H/10T1/2 cells; experiment: Cellular beta-catenin stabilisation assay, Test (b); format: cell-based; conditions: Mus musculus, 24 hours, read-out: EC50 versus cellular β-catenin accumulation in the nucleus of murine C3H/10T1/2 cells
# Procedure: This assay uses an imaging based approach to measure the ability of test compounds to promote Beta-catenin stabilisation in the nucleus of C3H10T1/2 cells. Beta-catenin stabilisation is an indicator of GSK3β inhibition.
# A C3H10T1/2 mouse clone 8 fibroblast cell line (American Type Culture Collection (ATCC, USA; catalogue number CRL 226) was routinely maintained at 37° C. with 5% CO2 in Basal Medium Eagle (BME, Invitrogen; Paisley, UK; catalogue number 41010) containing 10% (v/v) foetal bovine serum (FBS, Invitrogen, Paisley; UK; catalogue number 10270) and 2 mM L-glutamine (Invitrogen, Paisley, UK; catalogue number 25030024). For the assay, the cells were detached from the culture flask with ‘Accutase’ (Innovative Cell Technologies Inc., San Diego, USA; catalogue number AT104) using standard tissue culture methods and re-suspended in assay media comprising of BME containing 5% (v/v) FBS and 2 mM L-glutamine to give 55,555 cells per ml. Then, 90 μl of this solution was seeded into each well of a clear-bottom 96 well tissue culture plate (Perkin Elmer Viewplate; catalogue number 6005182) using a Multidrop Combi Dispenser (Thermo Fisher Scientific, Loughborough, UK) to give 5,000 cells per well. Plates were incubated overnight at 37° C. with 5% CO2 to allow the cells to adhere to the wells. Test compounds were prepared as 10 mM stock solutions in dimethylsulphoxide (DMSO) (Sigma-Aldrich; Poole, UK, catalogue number 49442-9) and serially diluted in DMSO. A Multidrop Combi was used to dispense 245 μl of pre-warmed assay media into a 96 well plate (Thermo Fisher Scientific, Loughborough, UK; catalogue number 50823925) before 5 μl of serially diluted compound was added to this intermediate plate. After mixing, 10 μl of each compound concentration was added to the cell plates. The total dilution factor from DMSO stock was 500 times. Control cells received either DMSO (0.2% v/v final concentration) or 10 μM positive control compound. The cells were incubated for 24 hours at 37° C. with 5% CO2.
# After compound treatment the cells were fixed by the addition of 100 μl of 8% w/v paraformaldehyde (Sigma-Aldrich, Poole, UK; catalogue number P6148), directly into the assay plate wells. The cells were incubated at ambient temperature with fixative for 30 minutes before washing 3 times with 100 μl phosphate-buffered saline (PBS, Sigma-Aldrich; catalogue number D8537). […] The cells were then washed 3 times in 100 μl of PBS before the plates were sealed ready for image capture. Fluorescent images were captured and quantified using the Incell Analyser 3000 (GE Healthcare, USA). […]
# human GSK3β enzyme = target: T1, human GSK3β enzyme (Homo sapiens, UniProt P49841); experiment: In vitro GSK3β kinase assay (FRET, Z'-LYTE), Test (a); format: biochemical; conditions: read-out: IC50 versus human GSK3β enzyme
# T1 construct: His6 (N); purchased Millipore 14-306; host or cells: baculovirus / Sf21 insect cells
# Excerpt: This biochemical assay used a Fluorescence Resonance Energy Transfer (FRET)-based, coupled-enzyme format to determine the ability of test compounds to inhibit substrate phosphorylation by recombinant GSK3β serine/threonine kinase (Kleman-Leyer, K. et al. Drug Disc. Devel. 2003, 6:81-2). The substrate used in this assay was Z′-LYTE™ ser/Thr 9 peptide and the FRET assay kit was obtained from Invitrogen (Paisley, UK, catalogue number PV3324). N-terminal His6-tagged recombinant human GSK313, with an H350 L mutation, was expressed in baculovirus in Sf21 insect cells, purified and obtained from Millipore (Billerica, Mass., USA, catalogue number 14-306 Human).
# Test compounds were prepared as 10 mM stock solutions in dimethylsulphoxide (DMSO) and diluted in DMSO as required. Aliquots (2.5 μl) of compound dilutions were added to the wells of an Optiplate-F PerkinElmer 384-well plate (Massachusetts, USA, catalogue number 6007270). Control wells that produced a maximum signal corresponding to maximum enzyme activity were created by using 100% phosphorylated peptide obtained from Invitrogen (Paisley, UK, catalogue number PV3326). A 5 μl aliquot of 100% phosphorylated peptide (100 μM in 1.33× kinase buffer) was added to all maximum control wells. 2.5 μl of 4% DMSO solution (v/v) in 1.33× kinase buffer was added to maximum control wells. Control wells that produced a minimum signal corresponding to 100% inhibited enzyme were created by adding 2.5 μl of 40 μM Staurosporine in 1.33× kinase buffer containing 4% DMSO (v/v). A 5 μl mixture of GSK3β (100 ng/μl) enzyme and non-phosphorylated substrate (Z-LYTE™ ser/Thr 9 peptide, 100 μM) in a 1.33× kinase buffer solution was added to each well except maximum control wells and the assay plate centrifuged at 270 g for 1 minute. The kinase buffer used 1.33× was obtained from Invitrogen (Paisley, UK, catalogue number PV3189) and contained 67 mM HEPES (pH 7.5), 13 mM MgCl2, 1.3 mM EGTA, 0.01% BRIJ-35. Then 2.5 μl adenosine triphosphate (28 μM) in kinase buffer was added per well, centrifuged at 270 g for 1 minute and then the assay plate was shaken for 1 hour at room temperature. A proprietary development solution was prepared by adding 58 μl of development reagent A (Invitrogen, Paisley, UK, catalogue number PV3297) to 2142 μl of development reagent B (Invitrogen, Paisley, UK, catalogue number P3127). […]
# The resultant signals arising from laser light excitation at 400 nm were read using a Perkin Elmer Envision spectrophotometer (Perkin Elmer, Massachusetts, USA). […] A ratiometric method, which calculates the ratio (the Emission Ratio) of donor emission to acceptor emission after excitation of the donor fluorophore at 400 nm, quantitates reaction progress, as shown in the equation below. […]
# T1 sequence (P49841 whole entry): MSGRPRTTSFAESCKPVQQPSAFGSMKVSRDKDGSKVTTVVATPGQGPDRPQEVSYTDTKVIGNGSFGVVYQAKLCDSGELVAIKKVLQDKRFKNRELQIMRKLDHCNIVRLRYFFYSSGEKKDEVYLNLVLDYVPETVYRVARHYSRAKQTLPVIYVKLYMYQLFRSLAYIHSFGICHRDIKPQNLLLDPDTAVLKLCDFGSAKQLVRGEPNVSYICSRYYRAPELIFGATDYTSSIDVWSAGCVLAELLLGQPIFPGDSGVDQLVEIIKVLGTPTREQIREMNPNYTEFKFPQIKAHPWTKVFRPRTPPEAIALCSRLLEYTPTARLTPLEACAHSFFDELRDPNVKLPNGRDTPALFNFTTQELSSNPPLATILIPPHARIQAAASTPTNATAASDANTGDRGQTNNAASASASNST
Structure (SMILES),"Maximum tolerated dose (highest dose) (rat bone marrow; two oral doses 24 hours apart, male Wistar Han rats)","Incidence of micronucleated immature erythrocytes (MIE) above the vehicle control (rat bone marrow; two oral doses up to 250 mg/kg free-base equivalent 24 hours apart, bone marrow 24 hours after second dose)",EC50 [1],IC50 (human GSK3β enzyme),"Incidence of MIE compared with the vehicle control values (rat bone marrow; quality control slides, rats given 20 mg/kg in a previous study)"
COCCCNCCCc1ccc(-c2cnc(N)c(C(=O)Nc3cccnc3)n2)cc1.O=S(=O)(O)c1ccccc1 [3-amino-6-(4-{3-[(3-methoxypropyl)amino]propyl}phenyl)-N-pyridin-3-ylpyrazine-2-carboxamide mono-besylate],250 mg/kg free-base equivalent,no biologically or statistically significant increases,–,–,–
"COCCNCCCc1ccc(-c2cnc(N)c(C(=O)Nc3cccnc3)n2)cc1 [Example 5, 3-Amino-6-(4-{3-[(2-methoxyethyl)amino]propyl}phenyl)-N-pyridin-3-ylpyrazine-2-carboxamide tri-hydrochloride]",–,–,~0.902 µM,~0.021 µM,–
"COCCCNCCc1ccc(-c2cnc(N)c(C(=O)Nc3cccnc3)n2)cc1 [Example 6, 3-Amino-6-(4-{2-[(3-methoxypropyl)amino]ethyl}phenyl)-N-pyridin-3-ylpyrazine-2-carboxamide]",–,–,~0.902 µM,~0.048 µM,–
"COCCNCCc1ccc(-c2cnc(N)c(C(=O)Nc3cccnc3)n2)cc1 [Example 7, 3-Amino-6-(4-{2-[(2-methoxyethyl)amino]ethyl}phenyl)-N-pyridin-3-ylpyrazine-2-carboxamide tri-hydrochloride]",–,–,~3.89 µM,~0.08 µM,–
"O=P1(N(CCCl)CCCl)NCCCO1 (stereo not drawn) [cyclophosphamide, reference compound]",–,–,–,–,significantly increased
